Experimental data: patent publication US20160075689A1, “POLYMERASE, ENDONUCLEASE, AND HELICASE INHIBITORS AND METHODS OF USING THEREOF” (THE BOARD OF TRUSTEES OF THE UNIVERSITY OF ARKANSAS, priority 2013, published 2016)
Where “and” joins values, the source holds several entries; their conditions need not be identical. Equal values may be shown once.

Assays:
NS3-4A = NS3-4A (Hepatitis C virus genotype 1b, UniProt P26663); experiment: NS3 protease activity assay; type: biochemical, HCV; conditions: 25 μM compound, 50 nM NS3-4A, 100 nM substrate
Sequence of NS3-4A (P26663 1027-1657): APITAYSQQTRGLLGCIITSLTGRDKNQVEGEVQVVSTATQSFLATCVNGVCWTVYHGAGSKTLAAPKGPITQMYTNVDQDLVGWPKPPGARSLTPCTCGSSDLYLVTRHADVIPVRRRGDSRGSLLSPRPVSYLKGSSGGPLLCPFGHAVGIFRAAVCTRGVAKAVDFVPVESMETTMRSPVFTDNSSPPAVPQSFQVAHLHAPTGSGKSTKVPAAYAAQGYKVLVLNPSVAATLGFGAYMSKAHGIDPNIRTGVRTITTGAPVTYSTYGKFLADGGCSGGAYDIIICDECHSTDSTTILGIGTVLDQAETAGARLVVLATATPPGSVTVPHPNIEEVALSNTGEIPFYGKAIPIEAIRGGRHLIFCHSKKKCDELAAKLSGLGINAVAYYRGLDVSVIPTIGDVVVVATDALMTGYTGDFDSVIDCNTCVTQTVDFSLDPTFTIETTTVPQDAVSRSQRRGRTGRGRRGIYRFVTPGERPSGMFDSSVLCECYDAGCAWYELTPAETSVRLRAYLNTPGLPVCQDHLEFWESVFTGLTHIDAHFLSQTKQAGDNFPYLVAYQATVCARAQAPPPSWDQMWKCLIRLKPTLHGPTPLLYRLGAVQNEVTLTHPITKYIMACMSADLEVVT
Sequence of NS3-4A (P26663 1658-1711): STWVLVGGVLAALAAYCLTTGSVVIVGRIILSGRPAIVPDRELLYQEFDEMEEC
Procedure: The protease activity of NS3 was analyzed in the presence of 25 μM ITBA-3-79, ITBA-3-82 or ITBA-3-85 by using 50 nM NS3-4A and 100 nM substrate (Ac-Asp-Glu-Asp-EDANS-Glu-Glu-Abu-L-Lactoyl-Ser-Lys DABCYL-NH2). The emission spectra of EDANS and the absorption spectra of DABCYL overlap making the peptide internally quenched. Cleaving of the substrate by the protease results in an increase in fluorescence that can be measured (λex−355 nm; λem, −500 nm). Telapravir (10 μM) was used as a positive control.

NS3 helicase = molecular target: T1, NS3 helicase (Hepatitis C virus genotype 1b, UniProt P26663); experiment: Gel-based helicase assay; type: biochemical, HCV; conditions: standard helicase assay
T1 construct: analyze the helicase activity of NS3 helicase in the presence of the compounds; made in house
T1 sequence (P26663 1027-1657): as the sequence (P26663 1027-1657) above
Procedure: Benchtop unwinding assays were performed to analyze the helicase activity of NS3 helicase in the presence of the compounds. The unwinding reaction was initiated by mixing the right (N53, compound, assay buffer) and left (radiolabeled substrate, ATP, assay buffer) reactions, which was then quenched. The ssDNA product formed over time is separated from dsDNA substrate by 20% native PAGE. The ratio of dsDNA substrate to ssDNA product is quantified using ImageQuant and the fraction of substrate unwound at each time-point is plotted as a function of time using Kaleidagraph software.

HCV NS3 helicase = molecular target: T2, HCV NS3 helicase (Hepatitis C virus genotype 1b, UniProt P26663); experiment: Fluorescence-based helicase assay; type: biochemical; conditions: IC50 for inhibition of NS3 helicase, mean ± standard deviation of three data sets
T2 construct: analyze the helicase activity of NS3 helicase in the presence of the compounds; made in house
T2 sequence (P26663 1027-1657): as above
Procedure: A library of compounds was screened using a previously validated quantitative assay that measures helicase activity over time. The assay relies upon helicase-catalyzed displacement of a fluorescently-labeled oligonucleotide (FIG. 13A). The concentration of enzyme and compounds used was 250 nM and 20 μM respectively. The experiments were performed in triplicate. […] Three potential helicase inhibitors were identified using the fluorescence based assay. […] The inhibitor compounds identified in our screen were ITBA-3-79, ITBA-3-82 and ITBA-3-85 (FIG. 14A). […] The IC50 value for ITBA-3-79, ITBA-3-82 and ITBA-3-85-mediated inhibition of NS3 helicase ranged˜20 μM (FIG. 14C). The ATPase activity of NS3 (50 μM) was analyzed in the presence of ITBA-3-79, ITBA-3-82 and ITBA-3-85 using a coupled spectrophotometric assay (Raney and Benkovic 1995, (FIG. 15). The protease activity of NS3 was analyzed in the presence of ITBA-3-79, ITBA-3-82 and ITBA-3-85 by using 50 nM NS3-4A and 100 nM substrate (Ac-Asp-Glu-Asp-EDANS-Glu-Glu-Abu-L-Lactoyl-Ser-Lys DABCYL-NH2, FIG. 15. The NS3 helicase activity was analyzed in the presence of 25 μM ITBA-3-79, ITBA-3-82 and ITBA-3-85 (FIG. 16).
A fluorescence based quantitative assay that measures helicase activity over time was employed to screen the compounds. The concentration of enzyme and compounds used was 250 nM and 20 μM respectively. Helicase catalyzes the unwinding of a FAM-labeled dsDNA and the resulting increase in fluorescence is plotted (λex-485 nm; λem, −528 nm). The slope of the initial part of the plot was used to calculate the percentage helicase activity. […] The IC50 value for ITBA-3-79, ITBA-3-82 and ITBA-3-85-mediated inhibition of NS3 helicase was determined using the same assay.

[1] = tested on: EndoG-expressing PC3 cells; experiment: Cytoprotection against Docetaxel-induced cell death, LDH release and TUNEL assays; type: cell-based, human; conditions: Docetaxel 80 μM, inhibitor 50 μM
Procedure: Docetaxel is an anti-cancer drug used to treat prostate cancer. Human invasive prostate cancer PC3 cells are known to be resistant to anticancer drugs. […] The resulting EndoG-expressing PC3 cells were exposed with Docetaxel (80 μM) in the absence or presence of the inhibitors, PNR-3-80 or PNR-3-82 (50 μM each). The cell death was measured by using two methods, LDH release assay and TUNEL assay. […]

EndoG [2] = molecular target: T3, EndoG (Homo sapiens, UniProt Q14249); experiment: High-throughput EndoG screening assay; type: biochemical
T3 sequence (Q14249 49-297): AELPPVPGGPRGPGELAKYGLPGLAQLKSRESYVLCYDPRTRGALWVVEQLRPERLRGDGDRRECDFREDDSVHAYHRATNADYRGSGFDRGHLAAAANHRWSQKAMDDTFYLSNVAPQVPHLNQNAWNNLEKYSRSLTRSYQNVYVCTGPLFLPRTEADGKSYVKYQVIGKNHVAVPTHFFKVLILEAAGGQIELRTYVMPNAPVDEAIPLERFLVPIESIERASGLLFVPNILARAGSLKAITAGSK
Procedure: (§1) A reaction mixture was prepared in each well of a white 96-well plate (Costar, Corning, N.Y.) as follows: 0.25 μM Cy5.5-labeled oligonucleotide (described in US provisional patent filed Oct. 19, 2012, Ser. No. 61/716,097) 0.3 mM MgCl2, 10 mM Tris-HCl, pH 7.4, 1 μl DMSO containing 5 or 50 ng of test compound, and nuclease-free water for a total reaction volume of 100 μl. The background (negative control) and uninhibited EndoG samples were measured using DMSO only, or DMSO containing recombinant EndoG (4 μg/ml), respectively. After addition of EndoG, fluorescence intensity was kinetically measured on a Bio-Tek Synergy 4.0 plate reader at 37° C. and mean velocity (mRFU/min) within 20 min was automatically calculated by the plate reader. The background was subtracted prior to the calculation of EndoG activity (%). The percent of EndoG activity was calculated from the mean velocity of a compound divided by the mean velocity of DMSO with recombinant EndoG, and the obtained value multiplied by 100.

EndoG [3] = molecular target: T3, EndoG; experiment: Plasmid incision assay; type: biochemical; conditions: agarose gel, FIG. 9
Procedure: A reaction mixture was prepared containing 0.5 μg pECFP plasmid DNA, 2 mM CaCl2, 5 mM MgCl2, 10 mM Tris-HCl, pH 7.4, 0.5 mM dithiothreitol. The test compound [50 ng in DMSO (1 μl)] was added. Recombinant EndoG was then added to the final concentration of 200 ng/ml and the reaction was incubated for 1 h at 37° C. The reaction was terminated by adding 2 μl of 10 mM Tris-HCl, pH 7.4, 1% SDS, 25 mM EDTA, 7.2 mM bromophenol blue. The samples were run in 1% agarose gel in Tris-acetate-EDTA buffer (40 mM Tris, 20 mM acetic acid, 1 mM EDTA, pH 8), at 7 V/cm for 35 min, and DNA was stained with ethidium bromide. An EagleEye scanning densitometer (Stratagene, La Jolla, Calif.) was utilized to quantify the relative amount of endonuclease-treated plasmid DNA present in a covalently-closed circular (supercoiled) DNA, open circular DNA, or linear DNA, or in a digested form.

LDH = LDH activity in NRK-52E cell extract; type: biochemical; conditions: 0.1 μM and 10 μM
Procedure: (§2) As a follow up to Example 8, the effects of the EndoG inhibitors PNR-3-80 and PNR-3-82, at 0.1 μM and 10 μM each, on the activities of four other enzymes including RNase A, protease, LDH, and SOD in NRK-52E cell extract were examined. NRK-52E cells were grown to ˜80% confluence in […]. The medium was aspirated and the cells were rinsed with ice cold 1×PBS, pH 7.4. The cells were lysed in 50 mM Tris-HCl, pH 7.4, 150 mM NaCl, 1% Triton X-100 for 10 min on ice and then briefly sonicated. Cell debris was removed by centrifugation at 13,000×g for 10 min at 4° C. The supernatant was collected and stored at −80° C. until use. LDH, Protease, Superoxide dismutase (SOD), and Ribonuclease A (RNase A) activities were measured by using CytoTox 96® Non-Radioactive Cytotoxicity Assay kit (Promega, Madison, Wis.), Protease Fluorescent Detection kit (Sigma-Aldrich, Saint Louis, Mo.), SOD determination kit (Sigma-Aldrich, Saint Louis, Mo.), and Ribonuclease A Detection kit (Sigma-Aldrich, Saint Louis, Mo.), respectively, according to the manufacturer's instructions.

22Rv1 cells = experiment: Cytoprotection against Cisplatin-induced cell death, LDH release assay; type: cell-based, human; conditions: Cisplatin 60 μM, inhibitor 50 μM
Procedure: To test cytotoxic activities of the inhibitors, human prostrate carcinoma epithelial 22Rv1 cells, which naturally express EndoG, were exposed to Cisplatin (60 μM) in the presence or absence of PNR-3-80 (50 μM) and cell death was measured by the LDH release assay.

DNase II = molecular target: T4, DNase II (Homo sapiens, UniProt O00115); experiment: Endonuclease screening assay, specificity; type: biochemical
T4 sequence (O00115 19-360): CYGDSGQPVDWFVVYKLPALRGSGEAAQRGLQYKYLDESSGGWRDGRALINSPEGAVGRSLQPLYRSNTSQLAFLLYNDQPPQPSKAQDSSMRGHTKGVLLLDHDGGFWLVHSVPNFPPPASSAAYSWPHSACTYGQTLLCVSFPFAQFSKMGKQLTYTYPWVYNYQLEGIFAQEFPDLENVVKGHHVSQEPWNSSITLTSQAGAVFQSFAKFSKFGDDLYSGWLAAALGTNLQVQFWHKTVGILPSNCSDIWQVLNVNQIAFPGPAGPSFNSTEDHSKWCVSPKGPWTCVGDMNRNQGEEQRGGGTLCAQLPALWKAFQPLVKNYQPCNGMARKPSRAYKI
From the text: (§3) Specificity of a potential inhibitor is important for any in vitro or in vivo application, and generally defines the usefulness of an inhibitor. To determine specificity of the inhibitors for the two EndoG inhibitors, PNR-3-80 and PNR-3-82, their IC50 values for EndoG were compared using the screening assay with the IC50 values for two other endonucleases, DNase I and DNAse II (FIG. 11). These endonucleases were chosen because they represent the majority of endonuclease activity in most mammalian cells and because of their availability as pure enzymes.
as §1

DNase I = molecular target: T5, DNase I (Homo sapiens, UniProt P24855); experiment: Endonuclease screening assay, specificity; type: biochemical
T5 sequence (P24855 23-282): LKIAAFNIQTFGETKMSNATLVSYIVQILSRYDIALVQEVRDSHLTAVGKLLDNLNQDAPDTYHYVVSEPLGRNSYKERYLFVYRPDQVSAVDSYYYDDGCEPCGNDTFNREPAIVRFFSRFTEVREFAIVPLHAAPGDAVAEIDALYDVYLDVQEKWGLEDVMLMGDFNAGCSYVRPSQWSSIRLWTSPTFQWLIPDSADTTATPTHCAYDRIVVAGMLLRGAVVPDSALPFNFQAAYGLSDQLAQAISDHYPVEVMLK
From the text: as §3, §1

SOD = SOD activity in NRK-52E cell extract; type: biochemical; conditions: 0.1 μM and 10 μM
Procedure: as §2

protease = experiment: Protease activity in NRK-52E cell extract; type: biochemical; conditions: 0.1 μM and 10 μM
Procedure: as §2

RNase A = experiment: Ribonuclease A activity in NRK-52E cell extract; type: biochemical; conditions: 0.1 μM and 10 μM
Procedure: as §2

O=C1NC(=S)NC(=O)C1=Cc1cn(C(=O)c2ccc3ccccc3c2)c2ccccc12 [ITBA-3-79]
NS3 protease activity (NS3-4A): do not block protease activity | NS3 helicase activity, gel electrophoresis (NS3 helicase): confirmed the inhibition | IC50 (HCV NS3 helicase): ~20 µM and 21.6 µM

COc1ccc2c(c1)c(C=C1C(=O)NC(=S)NC1=O)cn2C(=O)c1cccc2ccccc12 [ITBA-3-85]
NS3 protease activity (NS3-4A): do not block protease activity | NS3 helicase activity, gel electrophoresis (NS3 helicase): confirmed the inhibition | IC50 (HCV NS3 helicase): ~20 µM and 23.5 µM

O=C1NC(=S)NC(=O)C1=Cc1cn(C(=O)c2ccc3ccccc3c2)c2ccc(Cl)cc12 [PNR-3-80]
cytoprotection against Docetaxel-induced cell death [1]: cytoprotective | remaining activity at 1 µM (EndoG [2]; 20 min, compound 1 μM, read-out: % EndoG activity in the presence of the compound): 36% | IC50 (EndoG [2]; IC50 against EndoG, EndoG screening assay): 0.671 µM and 0.67 µM | protection of supercoiled plasmid DNA from degradation by EndoG (EndoG [3]): significantly protected the plasmid DNA from degradation | LDH activity (LDH): none of the two tested compounds had any inhibiting activity | inhibition of Cisplatin-induced cell death (22Rv1 cells): significant and complete inhibition | inhibition of Cisplatin-induced cell death (22Rv1 cells; listed as P-NR-30): complete inhibition | effect on DNase II activity (DNase II): did not have any effect | IC50 (DNase I): 11.2 µM | SOD activity (SOD): none of the two tested compounds had any inhibiting activity | protease activity (protease): none of the two tested compounds had any inhibiting activity | RNase A activity (RNase A): none of the two tested compounds had any inhibiting activity
